Results on one molecule are retold here after patent US20130288364A1, “ENGINEERED KINETOCHORES AND USES THEREOF” (Whitehead Institute for Biomedical Research, priority 2010, published 2013).

The test relates to U2OS-LacO cells. The experiment in a line: Interaction of LacI foci with spindle microtubules (foci shape). Format: cell-based, human. The settings on record: 2 μM. The source says: We next sought to test the interaction of these foci with spindle microtubules. […] This deformation of the LacI foci could represent microtubules binding the structure to opposite spindle poles. In such a situation, tension across the region would result in a change in the shape of the chromatin. Consistent with microtubule interactions with the foci, the deformed shape of the GFP-CENP-T-ΔC-LacI focus was dependent on microtubules, as nocodazole treatment relaxed this to a circular morphology, with an average length to width ration of 1.15 (FIG. 6B). See also FIG. 8. Deformation of the GFP-CENP-T-ΔC-LacI focus was exacerbated by treatment with the Aurora B inhibitor ZM447439, which has been proposed to regulate both kinetochore-microtubule attachments (Cheeseman and Desai, 2008) and chromatinstructure (Lipp et al., 2007).
Immunofluorescence in human cells was conducted as described previously (Kline et al., 2006). […]

Each structure is given as a SMILES string.

As for `COc1cc2c(Nc3ccc(NC(=O)c4ccccc4)cc3)ncnc2cc1OCCCN1CCOCC1` [ZM447439], the “effect on deformation of the GFP-CENP-T-ΔC-LacI focus” value is reported as “exacerbated”.
